Laboratory results reported in paper PMC3210832 (Journal of Pharmaceutical Sciences, 2011).

Legend:
[1] = molecular target: HIV-1 protease (Human immunodeficiency virus type 1 group M subtype B, UniProt P04585); test: HIV-1 protease inhibition, fluorometric assay; assay type: biochemical
[2] = system: HIV-1 in MT4 cells; test: In vitro anti-HIV activity in MT4 cells, colorimetric XTT assay; assay type: cell-based; conditions: Human immunodeficiency virus 1, MT4
[3] = Transport; conditions: rat, pH 7.4
[4] = Bidirectional transport across Caco-2 cell monolayers; conditions: human, Caco-2, pH 7.4

SMILES	Ki [1] [nM]	EC50 [2] [nM]	Papp [3] [×10⁻⁶ cm/s]	Papp at 90 min [3] [×10⁻⁶ cm/s]	Papp A→B [4] [×10⁻⁶ cm/s]	Papp B→A [4] [×10⁻⁶ cm/s]	efflux ratio [4]
CNC(=O)[C@@H](NC(=O)[C@](O)(Cc1ccccc1)CN(Cc1ccc(-c2ccccn2)cc1)NC(=O)[C@@H](NC(=O)OC)C(C)(C)C)C(C)(C)C [Compound 11, methyl (S)-1-(2-((S)-2-benzyl-3-((S)-3,3-dimethyl-1-(methylamino)-1-oxobutan-2-ylamino)-2-hydroxy-3-oxopropyl)-2-(4-(pyridin-2-yl)benzyl)hydrazinyl)-3,3-dimethyl-1-oxobutan-2-ylcarbamate]	23	> 10000	3.8	< 8	3.4 ± 0.4	26 ± 9.1	7.6
CC(C)(C)NC(=O)[C@@H]1CN(Cc2cccnc2)CCN1C[C@@H](O)C[C@@H](Cc1ccccc1)C(=O)N[C@H]1c2ccccc2C[C@H]1O [Indinavir, reference compound]		41					
